Activity calls are given as the source filed them. The rule behind the calls is not given here.
Experiments:
[1] = molecular target: Amyloid-beta precursor protein (Homo sapiens, UniProt P05067); assay: Displacement of [125I]DMIC from Amyloid beta (1 to 42) after 3 hrs by gamma counting
Mus musculus [2] = species on record: Mus musculus; assay: Binding affinity to beta-amyloid in wild type mouse brain after 3 mins by microscopic analysis; format: tissue-based
Mus musculus [3] = species on record: Mus musculus; assay: Binding affinity to beta-amyloid in Tg2576 transgenic mouse brain after 3 mins by microscopic analysis; format: tissue-based
Blood [4] = assay: Biodistribution in ddY mouse blood assessed as per gram of tissue at 0.3 to 0.5 uCi, iv after 60 mins by gamma counting; format: ADME, organism-based; conditions: in vivo, 1 h
Pancreas [5] = assay: Biodistribution in ddY mouse pancreas assessed as per gram of tissue at 0.3 to 0.5 uCi, iv after 10 mins by gamma counting; format: ADME, organism-based; conditions: in vivo
Liver [6] = assay: Biodistribution in ddY mouse liver assessed as per gram of tissue at 0.3 to 0.5 uCi, iv after 30 mins by gamma counting; format: ADME, organism-based; conditions: in vivo, 0.5 h
Kidney [7] = assay: Biodistribution in ddY mouse kidney assessed as per gram of tissue at 0.3 to 0.5 uCi, iv after 2 mins by gamma counting; format: ADME, organism-based; conditions: in vivo
Spleen [8] = assay: Biodistribution in ddY mouse spleen assessed as per gram of tissue at 0.3 to 0.5 uCi, iv after 10 mins by gamma counting; format: ADME, organism-based; conditions: in vivo
Liver [9] = assay: Biodistribution in ddY mouse liver assessed as per gram of tissue at 0.3 to 0.5 uCi, iv after 2 mins by gamma counting; format: ADME, organism-based; conditions: in vivo
Heart [10] = assay: Biodistribution in ddY mouse heart assessed as per gram of tissue at 0.3 to 0.5 uCi, iv after 30 mins by gamma counting; format: ADME, organism-based; conditions: in vivo, 0.5 h
Intestine [11] = assay: Biodistribution in ddY mouse intestine assessed as per organ at 0.3 to 0.5 uCi, iv after 2 mins by gamma counting; format: ADME, organism-based; conditions: in vivo
Heart [12] = assay: Biodistribution in ddY mouse heart assessed as per gram of tissue at 0.3 to 0.5 uCi, iv after 60 mins by gamma counting; format: ADME, organism-based; conditions: in vivo, 1 h
Stomach [13] = assay: Biodistribution in ddY mouse stomach assessed as per gram of tissue at 0.3 to 0.5 uCi, iv after 60 mins by gamma counting; format: ADME, organism-based; conditions: in vivo, 1 h
Kidney [14] = assay: Biodistribution in ddY mouse kidney assessed as per gram of tissue at 0.3 to 0.5 uCi, iv after 10 mins by gamma counting; format: ADME, organism-based; conditions: in vivo
Stomach [15] = assay: Biodistribution in ddY mouse stomach assessed as per gram of tissue at 0.3 to 0.5 uCi, iv after 10 mins by gamma counting; format: ADME, organism-based; conditions: in vivo
Brain [16] = assay: Biodistribution in ddY mouse brain assessed as per gram of tissue at 0.3 to 0.5 uCi, iv after 2 mins by gamma counting; format: ADME, organism-based; conditions: in vivo
Intestine [17] = assay: Biodistribution in ddY mouse intestine assessed as per organ at 0.3 to 0.5 uCi, iv after 30 mins by gamma counting; format: ADME, organism-based; conditions: in vivo, 0.5 h
Kidney [18] = assay: Biodistribution in ddY mouse kidney assessed as per gram of tissue at 0.3 to 0.5 uCi, iv after 60 mins by gamma counting; format: ADME, organism-based; conditions: in vivo, 1 h
Intestine [19] = assay: Biodistribution in ddY mouse intestine assessed as per organ at 0.3 to 0.5 uCi, iv after 10 mins by gamma counting; format: ADME, organism-based; conditions: in vivo
Blood [20] = assay: Biodistribution in ddY mouse blood assessed as per gram of tissue at 0.3 to 0.5 uCi, iv after 10 mins by gamma counting; format: ADME, organism-based; conditions: in vivo
Spleen [21] = assay: Biodistribution in ddY mouse spleen assessed as per gram of tissue at 0.3 to 0.5 uCi, iv after 60 mins by gamma counting; format: ADME, organism-based; conditions: in vivo, 1 h
Pancreas [22] = assay: Biodistribution in ddY mouse pancreas assessed as per gram of tissue at 0.3 to 0.5 uCi, iv after 60 mins by gamma counting; format: ADME, organism-based; conditions: in vivo, 1 h
Intestine [23] = assay: Biodistribution in ddY mouse intestine assessed as per organ at 0.3 to 0.5 uCi, iv after 60 mins by gamma counting; format: ADME, organism-based; conditions: in vivo, 1 h
Stomach [24] = assay: Biodistribution in ddY mouse stomach assessed as per gram of tissue at 0.3 to 0.5 uCi, iv after 2 mins by gamma counting; format: ADME, organism-based; conditions: in vivo
Liver [25] = assay: Biodistribution in ddY mouse liver assessed as per gram of tissue at 0.3 to 0.5 uCi, iv after 10 mins by gamma counting; format: ADME, organism-based; conditions: in vivo
Spleen [26] = assay: Biodistribution in ddY mouse spleen assessed as per gram of tissue at 0.3 to 0.5 uCi, iv after 2 mins by gamma counting; format: ADME, organism-based; conditions: in vivo
Pancreas [27] = assay: Biodistribution in ddY mouse pancreas assessed as per gram of tissue at 0.3 to 0.5 uCi, iv after 2 mins by gamma counting; format: ADME, organism-based; conditions: in vivo
Heart [28] = assay: Biodistribution in ddY mouse heart assessed as per gram of tissue at 0.3 to 0.5 uCi, iv after 2 mins by gamma counting; format: ADME, organism-based; conditions: in vivo
Brain [29] = assay: Biodistribution in ddY mouse brain assessed as per gram of tissue at 0.3 to 0.5 uCi, iv after 30 mins by gamma counting; format: ADME, organism-based; conditions: in vivo, 0.5 h
Pancreas [30] = assay: Biodistribution in ddY mouse pancreas assessed as per gram of tissue at 0.3 to 0.5 uCi, iv after 30 mins by gamma counting; format: ADME, organism-based; conditions: in vivo, 0.5 h
Kidney [31] = assay: Biodistribution in ddY mouse kidney assessed as per gram of tissue at 0.3 to 0.5 uCi, iv after 30 mins by gamma counting; format: ADME, organism-based; conditions: in vivo, 0.5 h
Brain [32] = assay: Biodistribution in ddY mouse brain assessed as per gram of tissue at 0.3 to 0.5 uCi, iv after 60 mins by gamma counting; format: ADME, organism-based; conditions: in vivo, 1 h
Brain [33] = assay: Biodistribution in ddY mouse brain assessed as per gram of tissue at 0.3 to 0.5 uCi, iv after 10 mins by gamma counting; format: ADME, organism-based; conditions: in vivo
Stomach [34] = assay: Biodistribution in ddY mouse stomach assessed as per gram of tissue at 0.3 to 0.5 uCi, iv after 30 mins by gamma counting; format: ADME, organism-based; conditions: in vivo, 0.5 h
Liver [35] = assay: Biodistribution in ddY mouse liver assessed as per gram of tissue at 0.3 to 0.5 uCi, iv after 60 mins by gamma counting; format: ADME, organism-based; conditions: in vivo, 1 h
Blood [36] = assay: Biodistribution in ddY mouse blood assessed as per gram of tissue at 0.3 to 0.5 uCi, iv after 2 mins by gamma counting; format: ADME, organism-based; conditions: in vivo
Spleen [37] = assay: Biodistribution in ddY mouse spleen assessed as per gram of tissue at 0.3 to 0.5 uCi, iv after 30 mins by gamma counting; format: ADME, organism-based; conditions: in vivo, 0.5 h
Blood [38] = assay: Biodistribution in ddY mouse blood assessed as per gram of tissue at 0.3 to 0.5 uCi, iv after 30 mins by gamma counting; format: ADME, organism-based; conditions: in vivo, 0.5 h
Heart [39] = assay: Biodistribution in ddY mouse heart assessed as per gram of tissue at 0.3 to 0.5 uCi, iv after 10 mins by gamma counting; format: ADME, organism-based; conditions: in vivo

Sequence of Amyloid-beta precursor protein (P05067 whole entry): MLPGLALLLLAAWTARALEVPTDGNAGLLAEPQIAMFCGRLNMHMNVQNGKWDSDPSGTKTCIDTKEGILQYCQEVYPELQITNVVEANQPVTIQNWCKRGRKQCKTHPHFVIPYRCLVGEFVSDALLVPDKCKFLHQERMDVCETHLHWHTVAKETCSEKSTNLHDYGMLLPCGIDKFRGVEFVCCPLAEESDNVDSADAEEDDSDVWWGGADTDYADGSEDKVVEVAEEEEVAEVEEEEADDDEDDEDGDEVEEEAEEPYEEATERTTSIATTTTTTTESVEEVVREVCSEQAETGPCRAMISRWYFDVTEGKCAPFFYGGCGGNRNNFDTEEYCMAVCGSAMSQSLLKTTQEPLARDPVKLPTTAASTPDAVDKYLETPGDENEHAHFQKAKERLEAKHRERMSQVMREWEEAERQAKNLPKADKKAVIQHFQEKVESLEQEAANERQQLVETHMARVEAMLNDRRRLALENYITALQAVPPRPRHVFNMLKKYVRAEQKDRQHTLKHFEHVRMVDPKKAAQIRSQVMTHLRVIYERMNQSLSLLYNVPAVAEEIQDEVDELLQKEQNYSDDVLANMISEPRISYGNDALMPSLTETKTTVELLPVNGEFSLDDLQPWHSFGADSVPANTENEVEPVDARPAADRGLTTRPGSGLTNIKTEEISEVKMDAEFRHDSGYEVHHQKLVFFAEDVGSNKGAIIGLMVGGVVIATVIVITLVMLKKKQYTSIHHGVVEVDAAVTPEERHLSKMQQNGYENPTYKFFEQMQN

For `CN(C)c1ccc(C#CC(=O)c2ccc(I)cc2)cc1`, the Ki [1] was 6 nM, the Activity (Mus musculus [2]) was “inactive” and the Activity (Mus musculus [3]) was “Active”.
For `COc1ccc(C#CC(=O)c2ccc(I)cc2)cc1`, the Ki [1] was 13.7 nM.
With `CN(C)c1ccc(C#CC(=O)c2ccc(F)cc2)cc1` the Ki [1] was 20.4 nM.
In the case of `O=C(C#Cc1ccc(O)cc1)c1ccc(I)cc1`, the Ki [1] is reported as 326 nM.
With `CN(C)c1ccc(C#CC(=O)c2ccc([125I])cc2)cc1` the Drug uptake (Blood [4]) was 3.07 %ID, the Drug uptake (Pancreas [5]) was 3.39 %ID and the Drug uptake (Liver [6]) was 12.02 %ID. It also gave a Drug uptake (Kidney [7]) of 10.45 %ID, a Drug uptake (Spleen [8]) of 5.19 %ID and a Drug uptake (Liver [9]) of 19.96 %ID. It also gave a Drug uptake (Heart [10]) of 6.03 %ID, a Drug uptake (Intestine [11]) of 2.73 %ID and a Drug uptake (Heart [12]) of 4.94 %ID. The Drug uptake (Stomach [13]) was 1.46 %ID, the Drug uptake (Kidney [14]) was 9.81 %ID and the Drug uptake (Stomach [15]) was 2.97 %ID. For the same compound, the Drug uptake (Brain [16]) was 1.55 %ID, the Drug uptake (Intestine [17]) was 12.04 %ID and the Drug uptake (Kidney [18]) was 7.75 %ID. It also gave a Drug uptake (Intestine [19]) of 8.44 %ID, a Drug uptake (Blood [20]) of 5.44 %ID and a Drug uptake (Spleen [21]) of 4.43 %ID. The Drug uptake (Pancreas [22]) was 2.09 %ID, the Drug uptake (Intestine [23]) was 14.02 %ID and the Drug uptake (Stomach [24]) was 0.75 %ID. It also gave a Drug uptake (Liver [25]) of 15.29 %ID, a Drug uptake (Spleen [26]) of 4.41 %ID and a Drug uptake (Pancreas [27]) of 3.9 %ID. For the same compound, the Drug uptake (Heart [28]) was 10 %ID, the Drug uptake (Brain [29]) was 0.93 %ID and the Drug uptake (Pancreas [30]) was 2.57 %ID. The Drug uptake (Kidney [31]) was 8.34 %ID, the Drug uptake (Brain [32]) was 0.76 %ID and the Drug uptake (Brain [33]) was 1.23 %ID. The Drug uptake (Stomach [34]) was 2.35 %ID, the Drug uptake (Liver [35]) was 10.06 %ID and the Drug uptake (Blood [36]) was 6.19 %ID. The Drug uptake (Spleen [37]) was 5.47 %ID, the Drug uptake (Blood [38]) was 3.94 %ID and the Drug uptake (Heart [39]) was 7.53 %ID.

— ChEMBL document CHEMBL1641605, “Diphenylpropynone derivatives as probes for imaging β-amyloid plaques in Alzheimer's brains” (Bioorg Med Chem Lett, 2011)
